According to the SangsterLogP compilation:

Experiments:
[1] = not given; remark: listed apart in the source
[2] = method code SF-AS, from DOI: 10.1135/cccc19822514; settings: pH 3.5
[3] = not given; remark: listed apart in the source
[4] = method code SF-AS, from DOI: 10.1016/j.bmc.2007.10.035, PMID: 18029186; settings: pH 7.4
[5] = method code SF-RC, from DOI: 10.1002/ps.2780300102; settings: pH 2.0
[6] = not given; remark: listed apart in the source
[7] = method code SF-RC, from DOI: 10.1248/cpb.38.3099, PMID: 2085895; settings: pH 7.4
[8] = method code SF-AS, from DOI: 10.1021/jm00299a013, PMID: 5458368
[9] = method code SF, from DOI: 10.1002/qsar.19920110207; settings: pH 1.0
[10] = method code SF-AS, from DOI: 10.1080/09553007214550551, PMID: 4537457
[11] = method code SF-RC, from DOI: 10.1016/s0026-895x(25)10639-1, PMID: 1170492
[12] = method code SF-GLC, from DOI: 10.1016/0147-6513(82)90020-3, PMID: 7106034
[13] = method code SF-AS, from DOI: 10.1248/cpb.21.2309, PMID: 4775970; settings: pH 3.3
[14] = method code SF-AS, from DOI: 10.1016/j.bmc.2008.07.057, PMID: 18706818; settings: pH 7.4
[15] = pH 1.0
[16] = method code SF-HPLC, from DOI: 10.1002/jps.2600841008, PMID: 8801331
[17] = method code SF-HPLC, from DOI: 10.1016/0378-5173(88)90220-7; settings: pH 7.4
[18] = not given; remark: listed apart in the source
[19] = method code SF-AS, from DOI: 10.1016/0005-2728(86)90252-5, PMID: 3015209; settings: pH 7.2
[20] = not given; remark: listed apart in the source
[21] = method code SF-GLC, from DOI: 10.1007/bf00212402, PMID: 7663085
[22] = method code SF-AS, from DOI: 10.1111/j.2042-7158.1980.tb13082.x, PMID: 6110743
[23] = not given; remark: listed apart in the source
[24] = method code SF-EPR, from DOI: 10.1016/0003-9861(82)90097-2, PMID: 6284047; settings: pH 7.4
[25] = not given; remark: listed apart in the source
[26] = method code SF-AS, from DOI: 10.1021/jm00162a004, PMID: 3023612
[27] = not given; remark: listed apart in the source
[28] = not given; remark: listed apart in the source
[29] = not given; remark: listed apart in the source
[30] = method code SF-AS, from DOI: 10.1248/cpb.15.1705, PMID: 5583828; settings: pH 1.1
[31] = method code SF-AS, from DOI: 10.2307/3577276, PMID: 2913608
[32] = not given; remark: listed apart in the source
[33] = method code SF-AS, from DOI: 10.1016/0021-9673(91)80064-n
[34] = method code SF, from PMID: 2704; settings: pH 1.0
[35] = method code SF-HPLC, from DOI: 10.1248/cpb.43.1894
[36] = method code SF-AS, from DOI: 10.1016/0006-2952(75)90156-2, PMID: 235934; settings: pH 7.4

In the case of `OCCC(F)(F)C(F)(F)C(F)(F)C(F)(F)C(F)(F)C(F)(F)C(F)(F)C(F)(F)F`, the logP is reported as 6.14.

With `CON=C(C#N)C(=O)N[C@@H](CCSC)C(=O)O` the logP [1] was 0.86.

Compound `O=C(O)CCc1ccccc1` has a logD [2] of 1.91.

Compound `CNC(=O)N(C)c1nc2ccccc2s1` has a logP [3] of 2.38.

With `CN(CCO)C(=O)Cn1ccnc1[N+](=O)[O-]` the logD [4] was -1.25.

Work on `NC(=O)Nc1ccc(CC(=O)O)cc1` yielded a logD [5] of 0.01.

Compound `FC1(F)C(F)(F)C(F)(F)C2(F)C(F)(F)C(F)(F)C(F)(F)C(F)(F)C2(F)C1(F)F` (centres undefined) has a logP [6] of 6.

In the case of `CNC(=S)NN=C(C)CC(C)=NNC(=S)NC`, the logD [7] is reported as 2.66.

`CCCS(=O)(=O)CCn1c([N+](=O)[O-])cnc1C` showed a logP [8] of 0.23.

`CC(=O)c1cccc(C(=O)O)c1` gave a logD [9] of 1.56.

`CC(=O)c1ccc(C)cc1` gave a logP [10] of 2.28.

In the case of `CC(CSCC(C)=NNC(N)=S)=NNC(N)=S`, the logP [11] is reported as 0.7.

`CCN(CC)C(=S)SSC(=S)N(CC)CC` showed a logP [12] of 3.88.

`Cc1nnc(NS(=O)(=O)c2ccc(N)cc2)s1` gave a logD [13] of 0.26.

`COc1nc(C)nc(NC(=O)NS(=O)(=O)c2ccccc2Cl)n1` showed a logD [5] of 1.54.

Compound `CCCC1(C(N)=O)CCC=[N+]1[O-]` (centres undefined) has a logD [14] of -0.68.

With `CC(Oc1cc(Cl)c(Cl)cc1Cl)C(=O)O` (centres undefined) the logD [15] was 3.8.

In the case of `CON=C(C#N)C(=O)NC(CCS(C)(=O)=O)C(=O)O` (centres undefined), the logP [1] is reported as -0.52.

For `O=S1OCC2C(CO1)C1(Cl)C(Cl)=C(Cl)C2(Cl)C1(Cl)Cl` (centres undefined), the logP [12] was 3.83.

Work on `CCOC(=O)C1=C(COCCN)NC(C)=C(C(=O)OC)C1c1ccccc1Cl` (centres undefined) yielded a logD ([16]; pH 11.0) of 3.09.

For `Cc1ccc(S(=O)(=O)N(C)C(=O)c2ccccc2)cc1`, the logD [17] was 2.95.

In the case of `Oc1cccc2ncccc12`, the logD ([16]; pH 7.4) is reported as 2.13.

Work on `Clc1cc2c(Cl)c(Cl)c(Cl)c(Cl)c2c(Cl)c1Cl` yielded a logP [18] of 7.33.

In the case of `Cc1cccc(C)c1NN=C(C#N)C#N`, the logD [19] is reported as 2.1.

`FC(F)(F)C1(F)C(F)(F)C(F)(F)C(F)(N2C(F)(F)C(F)(F)C(F)(F)C(F)(F)C2(F)F)C(F)(F)C1(F)F` (centres undefined) showed a logP [6] of 7.

Compound `O=NN(CCCl)C(=O)NC1CCCC(O)C1` (centres undefined) has a logP [20] of 1.28.

In the case of `ClC1=C(Cl)C2(Cl)C3CC=CC3C1(Cl)C2(Cl)Cl` (centres undefined), the logP [21] is reported as 5.57.

`CCCCCOc1cccc(O)c1` gave a logP [22] of 3.63.

`N#CC(C#N)=NNc1cccc(O)c1` showed a logD ([23]; pH 7.2) of 1.48.

`CNS(=O)(=O)c1ccc(C)cc1` gave a logD [17] of 1.28.

Compound `COc1ccc(C(C)=O)cc1` has a logP [10] of 1.82.

`CNC(=S)NN=C(C)CSCC(C)=NNC(=S)NC` gave a logP [11] of 1.4.

In the case of `CCC1(C)OCC(C)(C)N1[O]` (centres undefined), the logD [24] is reported as 1.

For `CC(=O)c1ccc(C(=O)O)cc1`, the logD [9] was 1.61.

`O=C(O)C(c1ccc(Cl)cc1)c1ccc(Cl)cc1` gave a logD [15] of 4.64.

In the case of `N#CC(C#N)=NNc1ccc(C(=O)CCl)cc1`, the logD ([23]; pH 3.0) is reported as 2.15.

With `CCSc1nnc(C(C)(C)C)c(=O)n1N` the logP [25] was 2.08.

`[O-][N+]1=CCCC12CCCC2` gave a logP [26] of -0.1.

In the case of `c1ccc(Nc2ccc3ccccc3c2)cc1`, the logP [27] is reported as 4.38.

For `OCCC(F)(F)C(F)(F)C(F)(F)C(F)(F)C(F)(F)C(F)(F)C(F)(F)C(F)(F)C(F)(F)C(F)(F)F`, the logP was 7.57.

For `CCCCC1(C)CCC=[N+]1[O-]` (centres undefined), the logP [26] was 0.04.

With `N#CC(C#N)=NNc1ccc([N+](=O)[O-])cc1Cl` the logD [19] was 2.

Compound `CCOC(=O)c1cccc(O)c1` has a logP [28] of 2.47.

With `O=C(O)CNC(=O)c1cccc(I)c1` the logP [29] was 1.44.

In the case of `ClC1=C(Cl)C2(Cl)C3C4OC4C(Cl)C3C1(Cl)C2(Cl)Cl` (centres undefined), the logP [27] is reported as 5.4.

`CCNc1nc(Cl)nc(NC(C)CC)n1` (centres undefined) gave a logP [3] of 3.02.

Compound `CCC1(CCC(C)C)C(=O)NC(=O)NC1=O` has a logD [30] of 2.07.

Compound `Cc1ccc(C)c(C(=O)NS(=O)(=O)c2ccc(N)cc2)c1` has a logD [13] of 2.19.

Compound `C=CCC1(CC)C(=O)NC(=O)NC1=O` has a logD [30] of 0.95.

With `CCCCC1(C(N)=O)CCC=[N+]1[O-]` (centres undefined) the logD [14] was -0.18.

Work on `ClC1=C(Cl)C2(Cl)C3C(Cl)C(Cl)(Cl)CC3C1(Cl)C2(Cl)Cl` (centres undefined) yielded a logP [21] of 6.06.

Work on `COC(=O)c1ccccc1NS(=O)(=O)c1[nH]cnc1[N+](=O)[O-]` yielded a logP [31] of 1.6.

In the case of `Cc1ncc([N+](=O)[O-])n1CCCS(C)(=O)=O`, the logP [8] is reported as -1.

With `CN(C(=O)NC(C)(C)c1ccccc1)c1ccccc1` the logP [25] was 3.01.

`O=C(O)CCc1cccc(I)c1` gave a logP [29] of 2.68.

Work on `CNC(=O)OCc1ccc(I)cc1[N+](=O)[O-]` yielded a logP [32] of 1.67.

For `C=CC(=O)NCCN1CCOCC1`, the logP [33] was -0.55.

Compound `COC(=O)COc1ccccc1` has a logD [34] of 1.41.

`COc1ccc(C(=CSC)C(=S)SC)cc1` gave a logP [35] of 4.1.

For `CCCOC(=O)c1ccccc1Cl`, the logP [28] was 3.45.

Compound `CNC(=S)N/N=C(C)\C(C)=N/NC(=S)NC` has a logD [7] of 0.67.

`CC(C)Oc1ccc([N+](=O)[O-])cc1` showed a logD [36] of 2.8.

`CCCOc1cccc(O)c1` gave a logP [22] of 2.59.

In the case of `CC(=O)OC[C@H]1O[C@H](OCCN(C)C(=O)Cn2ccnc2[N+](=O)[O-])[C@@H](OC(C)=O)[C@@H](OC(C)=O)[C@@H]1OC(C)=O`, the logD [4] is reported as -1.16.

`CNC(=O)OCc1cccc(I)c1[N+](=O)[O-]` showed a logP [32] of 1.64.

In the case of `O=NN(CCCl)C(=O)NC1CCCCC1O` (centres undefined), the logP [20] is reported as 1.6.

Work on `CC(C(=O)O)c1ccccc1` (centres undefined) yielded a logD [2] of 1.8.

`COc1ccc(C=O)cc1C` gave a logD [34] of 2.23.

Work on `C=CC(=O)NCCCN1CCOCC1` yielded a logP [33] of -0.52.

With `Clc1cc2c(Cl)cc(Cl)c(Cl)c2c(Cl)c1Cl` the logP [18] was 6.87.

In the case of `CCCCOc1ccc([N+](=O)[O-])cc1`, the logD [36] is reported as 3.5.

Compound `CC1(C)CCCC(C)(C)N1O` has a logD [24] of 1.81.

In the case of `CSC(=S)C1=C(SC)CCC1`, the logP [35] is reported as 3.59.

For `O=[N+]([O-])c1ccccc1NS(=O)(=O)c1[nH]cnc1[N+](=O)[O-]`, the logP [31] was 1.2.
